Results taken from patent US20220162188A1, “ISOPRENOIDS AND METHODS OF MAKING THEREOF” (NORTH CAROLINA STATE UNIVERSITY, priority 2019, published 2022).
Entries after “also recorded” stand apart in the source; their conditions may differ.

Legend:
[1] = target: T1, isopentenyl phosphate kinase (IPK) (Thermoplasma acidophilum, UniProt Q9HLX1); assay type: biochemical; conditions: overnight reaction
T1 sequence (Q9HLX1 1-245): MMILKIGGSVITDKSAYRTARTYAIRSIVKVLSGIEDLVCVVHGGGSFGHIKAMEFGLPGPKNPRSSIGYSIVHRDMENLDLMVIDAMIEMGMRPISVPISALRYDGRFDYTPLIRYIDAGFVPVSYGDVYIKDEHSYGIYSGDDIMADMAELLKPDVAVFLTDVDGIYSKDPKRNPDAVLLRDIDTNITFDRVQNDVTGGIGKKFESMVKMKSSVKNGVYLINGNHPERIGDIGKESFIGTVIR
Procedure: Since the substrate scope of IPK has yet to be fully described, here IPK was tested against a wider panel of substrates. The IPK gene from T. acidophilum was codon optimized and subcloned into pET28a. Following expression in E. coli BL21 DE3, the enzyme was purified via metal-chelation affinity chromatography. Next, the substrate specificity of the enzyme was determined in vitro using a panel of synthesized alcohol monophosphates using low resolution mass spectrometry (FIG. 25). The availability of alcohol diphosphate byproducts (FIG. 23) conveniently served as product standards.
Assay for Initial Activity of Monophosphates with IPK. Fractions from the synthesis of the diphosphates on a 400 μmol scale containing the monophosphates were concentrated in vacuo and resuspended to 5 mg/mL in water. Enzymatic reaction mixtures contained 50 mM Tris (pH 8.0), 2.5 mM MgCl2, 0.05 mM DTT, 1 mM ATP, and 4.2 μg of enzyme in a 200 μL reaction with 40 μL of substrate (1 mg/mL final). A reaction mixture without enzyme was setup as a control. Reactions were incubated overnight at 37° C. and checked by low-resolution LC-MS for diphosphate product formation. Standards from the isolated diphosphates were used to confirm retention time and mass. Reactions with a >10% diphosphate generation as compared to the no enzyme control were selected for kinetic experiments. LC-MS experiments were conducted using a Shimadzu LC-MS 2020 single quadrupole instrument with a Phenomenex Kinetex UPLC C18 column (2.1×50 mm, […], 100 Å pores) column. 5 μL was injected onto and separated using a series of linear gradients developed from 0.1% formic acid in H2O (A) to 0.1% formic acid in acetonitrile (B) at 0.2 mL/min using the following protocol: 0-2.2 min, 95-1% A; 2.21-2.6 min, 1% A; 2.61-2.62 min, 1-95% A; 2.63-3.5 min, 95% A. Products of enzymatic reactions were verified by mass and comparison with diphosphate standards previously synthesized.

[2] = test system: lycopene production via the DXP pathway; assay: Lycopene colorimetric reporter assay; assay type: cell-based; conditions: Fs 0.5 μM; E. coli BL21Tuner(DE3) lycopene reporter strain expressing IPK
CpaD I329G = CpaD I329G (Aspergillus oryzae, UniProt F5HN73, I329G); assay: Substrate specificity of prenyltransferase mutant CpaD I329G in vitro; assay type: biochemical; conditions: pyrophosphate 2 mM, cyclic dipeptide 1 mM, enzyme 1 mg/mL
Chain of CpaD I329G (F5HN73 whole entry I329G): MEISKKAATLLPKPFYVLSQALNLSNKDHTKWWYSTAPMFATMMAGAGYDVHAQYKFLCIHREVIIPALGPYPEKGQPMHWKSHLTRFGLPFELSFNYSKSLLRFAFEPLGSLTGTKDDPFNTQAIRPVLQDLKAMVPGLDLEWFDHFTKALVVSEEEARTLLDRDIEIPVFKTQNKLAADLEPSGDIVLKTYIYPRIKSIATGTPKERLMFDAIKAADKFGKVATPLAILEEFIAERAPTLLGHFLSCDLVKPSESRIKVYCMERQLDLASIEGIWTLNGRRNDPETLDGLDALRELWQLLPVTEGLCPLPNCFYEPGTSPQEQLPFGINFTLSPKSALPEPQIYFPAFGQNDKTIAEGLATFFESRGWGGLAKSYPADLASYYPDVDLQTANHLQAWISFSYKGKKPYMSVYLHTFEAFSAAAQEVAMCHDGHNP
Text: Altered substrate specificity of the prenyltransferase mutant CpaD 1329G in vitro. […] The results are illustrated in FIG. 62 and FIG. 63.

[3] = target: T1, isopentenyl phosphate kinase (IPK); assay: NADH-coupled kinetic assay of IPK; conditions: for kcat fold higher than that with IP: relative to natural substrate IP
Procedure: (§1) The data was fitted to the Michaelis-Menten equation using SigmaPlot, and the kinetic parameters (kcat, Km, kcat/Km) extracted.
(§2) NADH-Coupled Kinetic Assays. NADH coupled assays were performed with purified enzymes. Reaction progress was monitored by absorbance at 340 nm at 30° C. in a 96-well plate using a Biotek Synergy 4 plate reader (Winooski, Vt.). 200 μL enzymatic mixtures contained 50 mM Tris (pH 8.0), 25 mM KCl, 2.5 mM MgCl2, 0.05 mM DTT, 1 mM ATP, 320 μM NADH, 400 μM phosphoenolpyruvate, 0.5 U pyruvate kinase, 0.7 U lactate dehydrogenase, and various amounts of substrate. Conditions were verified by doubling enzyme and verifying the initial rate was doubled as well.
(§3) Kinetics of IPK were done with purified enzyme using 0.09 μg of enzyme per well. Serial dilution was used to generate specific concentrations of substrates (3125, 1562, 781, 625, 391, 195, 98, 24, 12, and 3 μM). Each condition was performed in triplicate. Nonlinear regression was fitted using SigmaPlot (Systat Software Inc., San Jose, Calif., USA).

FgaPT2 M328G = FgaPT2 M328G (Aspergillus fumigatus, UniProt Q50EL0, M328G); assay: Substrate specificity of FgaPT2 mutant M328G in vitro; assay type: biochemical; conditions: pyrophosphate 3 mM, enzyme 350 μg/mL, Trp 1 mM
Chain of FgaPT2 M328G (Q50EL0 whole entry M328G): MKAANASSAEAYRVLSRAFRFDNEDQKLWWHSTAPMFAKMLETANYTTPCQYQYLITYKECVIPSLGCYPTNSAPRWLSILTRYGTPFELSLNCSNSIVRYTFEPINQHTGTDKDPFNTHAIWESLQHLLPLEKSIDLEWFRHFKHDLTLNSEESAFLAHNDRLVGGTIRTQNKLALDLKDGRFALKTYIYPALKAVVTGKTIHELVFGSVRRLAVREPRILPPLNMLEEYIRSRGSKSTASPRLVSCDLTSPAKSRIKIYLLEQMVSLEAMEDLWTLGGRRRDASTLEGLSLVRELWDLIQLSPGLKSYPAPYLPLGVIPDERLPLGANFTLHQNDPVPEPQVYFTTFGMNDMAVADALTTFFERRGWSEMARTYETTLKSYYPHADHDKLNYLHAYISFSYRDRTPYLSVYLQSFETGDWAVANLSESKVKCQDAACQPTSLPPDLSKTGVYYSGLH
Procedure: Altered substrate specificity of the prenyltransferase FgaPT2 mutant M328G in vitro. Each chemically synthesized pyrophosphate (3 mM) was tested for activity with purified FgaPT2 M328 (350 μg/mL) and Trp (1 mM). […] The results are illustrated in FIG. 58 and FIG. 59.

FtmPT1 M364G = FtmPT1 M364G (Aspergillus fumigatus, UniProt Q4WAW7, M364G); conditions: pyrophosphate 2 mM, cyclic dipeptide 1 mM
Chain of FtmPT1 M364G (Q4WAW7 whole entry M364G): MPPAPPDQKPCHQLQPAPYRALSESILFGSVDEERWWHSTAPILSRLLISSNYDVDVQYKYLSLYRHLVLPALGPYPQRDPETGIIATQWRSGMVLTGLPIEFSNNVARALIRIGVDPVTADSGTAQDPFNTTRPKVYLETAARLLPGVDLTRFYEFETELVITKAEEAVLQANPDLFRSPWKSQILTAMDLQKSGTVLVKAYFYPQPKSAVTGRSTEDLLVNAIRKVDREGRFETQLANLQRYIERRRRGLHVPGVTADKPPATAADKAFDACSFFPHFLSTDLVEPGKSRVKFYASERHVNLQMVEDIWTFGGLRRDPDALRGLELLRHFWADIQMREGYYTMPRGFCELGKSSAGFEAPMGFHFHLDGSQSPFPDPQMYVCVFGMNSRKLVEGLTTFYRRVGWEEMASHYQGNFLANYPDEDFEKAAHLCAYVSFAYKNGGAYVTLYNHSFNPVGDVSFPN
Procedure: Each chemically synthesized pyrophosphate (2 mM) and cyclic dipeptide (1 mM) were tested for activity with purified FtmPT1 (100 mg/mL). […] The substrate (cyclic dipeptide) and product peak areas were determined by HPLC at a detection wavelength of 254 nm, and the conversion was calculated.

PhoN = assay: Substrate specificity of wild-type PhoN, HR-LCMS; assay type: biochemical, Shigella flexneri; conditions: alcohol 100 mM, PhoN 20 μg/mL, ATP 50 mM
Procedure: Broad substrate specificity of wild-type PhoN. Each commercially available alcohol (100 mM) was tested for activity with purified PhoN (20 μg/mL) and ATP (50 mM). The product mixtures were analyzed by high resolution liquid chromatography mass spectrometry (HR-LCMS) to quantify the conversion of alcohol to mono-phosphate. Quantification was achieved by the addition of an internal standard (either geranyl phosphate or cinnamyl monophosphate) at known fixed concentration. The results are illustrated in FIG. 54 and FIG. 55.

FtmPT1 = FtmPT1 (Aspergillus fumigatus, UniProt Q4WAW7); assay type: biochemical; conditions: pyrophosphate 2 mM, cyclic dipeptide 1 mM
Chain of FtmPT1 (Q4WAW7 whole entry): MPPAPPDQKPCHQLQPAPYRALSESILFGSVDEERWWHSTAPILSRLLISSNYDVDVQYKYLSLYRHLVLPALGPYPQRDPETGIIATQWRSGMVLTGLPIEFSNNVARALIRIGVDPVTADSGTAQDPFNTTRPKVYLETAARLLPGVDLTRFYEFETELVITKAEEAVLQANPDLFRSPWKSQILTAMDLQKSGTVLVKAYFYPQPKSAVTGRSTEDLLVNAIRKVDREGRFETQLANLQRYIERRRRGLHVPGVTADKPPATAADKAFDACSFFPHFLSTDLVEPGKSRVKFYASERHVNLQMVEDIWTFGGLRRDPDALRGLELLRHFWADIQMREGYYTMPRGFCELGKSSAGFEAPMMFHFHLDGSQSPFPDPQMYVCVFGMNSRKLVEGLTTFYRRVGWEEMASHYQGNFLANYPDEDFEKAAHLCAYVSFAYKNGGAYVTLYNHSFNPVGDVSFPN

CpaD = CpaD (Aspergillus oryzae, UniProt F5HN73); assay: Substrate specificity of prenyltransferase CpaD in vitro; assay type: biochemical; conditions: pyrophosphate 0.3 mM, cyclic dipeptide 0.25 mM, CpaD 1 mg/mL
Chain of CpaD (F5HN73 whole entry, species assumed): as the sequence (F5HN73 whole entry I329G) above, with G329I counted along it
Procedure: Broad substrate specificity of the prenyltransferase CpaD in vitro. Each chemically synthesized pyrophosphate (0.3 mM) and cyclic dipeptide (0.25 mM) were tested for activity with purified CpaD (1 mg/mL). […] The results are illustrated in FIG. 60 and FIG. 61.

FgaPT2 = FgaPT2 (Aspergillus fumigatus, UniProt Q50EL0); assay: Substrate specificity of wild-type prenyltransferase FgaPT2 in vitro; assay type: biochemical; conditions: pyrophosphate 3 mM, FgaPT2 200 μg/mL, Trp 1 mM
Chain of FgaPT2 (Q50EL0 whole entry): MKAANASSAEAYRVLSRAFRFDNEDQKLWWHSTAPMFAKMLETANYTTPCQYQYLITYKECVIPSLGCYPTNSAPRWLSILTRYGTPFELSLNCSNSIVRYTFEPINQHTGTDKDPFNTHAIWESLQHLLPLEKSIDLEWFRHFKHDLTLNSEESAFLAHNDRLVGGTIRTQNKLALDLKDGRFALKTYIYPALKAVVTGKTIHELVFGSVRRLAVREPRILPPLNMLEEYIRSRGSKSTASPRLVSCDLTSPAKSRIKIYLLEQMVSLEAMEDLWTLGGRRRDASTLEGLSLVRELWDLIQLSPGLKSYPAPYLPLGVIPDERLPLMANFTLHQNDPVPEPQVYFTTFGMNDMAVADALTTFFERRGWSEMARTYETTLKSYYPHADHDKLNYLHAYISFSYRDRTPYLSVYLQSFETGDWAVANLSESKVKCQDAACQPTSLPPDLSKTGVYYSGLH
Procedure: Broad substrate specificity of the wild-type prenyltransferase FgaPT2 in vitro. Each chemically synthesized pyrophosphate (3 mM) was tested for activity with purified FgaPT2 (200 μg/mL) and Trp (1 mM). The product mixtures were analyzed by HR-LCMS to identify the mass ions consistent with the expected alkylated product. The substrate (Trp) and product peak areas were determined by high performance liquid chromatography (HPLC) at a detection wavelength of 269 nm, and the conversion was calculated. The results are illustrated in FIG. 56 and FIG. 57.

[4] = target: IspA, a farnesyl diphosphate synthase (FPPase) (Escherichia coli, UniProt P22939); conditions: wild-type IspA, DMAPP as starter unit
Chain of IspA, a farnesyl diphosphate synthase (FPPase) (P22939 whole entry): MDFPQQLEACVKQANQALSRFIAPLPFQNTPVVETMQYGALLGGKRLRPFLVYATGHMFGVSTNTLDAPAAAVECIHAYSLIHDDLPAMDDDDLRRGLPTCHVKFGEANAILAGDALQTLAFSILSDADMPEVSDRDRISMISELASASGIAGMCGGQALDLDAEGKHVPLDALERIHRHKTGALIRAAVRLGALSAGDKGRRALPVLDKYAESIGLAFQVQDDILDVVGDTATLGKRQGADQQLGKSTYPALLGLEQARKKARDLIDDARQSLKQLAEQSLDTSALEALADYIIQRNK

[5] = substrate: CC(C)=CCOP(=O)(O)O; assay: purified protein, by the assay type; conditions: other: IPK with monophosphorylated substrate, ± SD of the mean, 1 mM ATP, 30° C., pH 8.0
Procedure: as §1, §2, §3

[6] = substrate: C=C(C)CCOP(=O)(O)O; assay: purified protein, by the assay type; conditions: other: IPK with monophosphorylated substrate, ± SD of the mean, 1 mM ATP, 30° C., pH 8.0
Procedure: as §1, §2, §3

## CC(C)=CCC/C(C)=C\CC/C(C)=C\COP(=O)(O)O [FP, farnesyl monophosphate]
[1]
  phosphorylation by IPK to the corresponding pyrophosphate, as judged by MS: did not result in detection of the corresponding pyrophosphate

## O=CN(O)CCCP(=O)(O)O [Fs, fosmidomycin]
[2]
  lycopene production: almost completely inhibited lycopene production

## CC(C)=CCC/C(C)=C/COP(=O)(O)O [GP, geranyl monophosphate]
[1]
  phosphorylation by IPK to the corresponding pyrophosphate, as judged by MS: did not result in detection of the corresponding pyrophosphate

## CC(C)=CCC/C(C)=C\COP(=O)(O)O [NP, neryl monophosphate]
[1]
  phosphorylation by IPK to the corresponding pyrophosphate, as judged by MS: did not result in detection of the corresponding pyrophosphate

## C=CCCOP(=O)(O)O [Substrate 1]
CpaD I329G
  CpaD I329G-catalyzed alkylation of cyclic dipeptide: expected product detected: products detected by HPLC and confirmed by LR-LCMS
[3]
  kcat fold higher than that with IP: 4.25 fold
FgaPT2 M328G
  FgaPT2 M328G-catalyzed alkylation of Trp: expected product detected: products detected by HPLC and confirmed by LR-LCMS
FtmPT1 M364G
  FtmPT1 M364G-catalyzed alkylation of cyclic dipeptide: expected product detected: products detected by HPLC and confirmed by LR-LCMS
PhoN
  PhoN-catalyzed phosphorylation of alcohol: expected product detected: mass ions were detected by HR-LCMS consistent with the expected product

## C=CCC(C)OP(=O)(O)O (stereo not shown) [Substrate 2]
[3]
  use as IPK substrate: detectable but kinetically irrelevant
PhoN
  PhoN-catalyzed phosphorylation of alcohol: expected product detected: mass ions were detected by HR-LCMS consistent with the expected product
FtmPT1
  FtmPT1-catalyzed alkylation of cyclic dipeptide: expected product detected: products detected by HPLC and confirmed by LR-LCMS
CpaD
  CpaD-catalyzed alkylation of cyclic dipeptide: expected product detected: products detected by HPLC and confirmed by LR-LCMS

## C=C(Br)CCOP(=O)(O)O [Substrate 3]
CpaD I329G
  CpaD I329G-catalyzed alkylation of cyclic dipeptide: expected product detected: products detected by HPLC and confirmed by LR-LCMS
[3]
  kcat fold higher than that with IP: 5.1 fold
FgaPT2 M328G
  FgaPT2 M328G-catalyzed alkylation of Trp: expected product detected: products detected by HPLC and confirmed by LR-LCMS
FtmPT1 M364G
  FtmPT1 M364G-catalyzed alkylation of cyclic dipeptide: expected product detected: products detected by HPLC and confirmed by LR-LCMS
PhoN
  PhoN-catalyzed phosphorylation of alcohol: expected product detected: mass ions were detected by HR-LCMS consistent with the expected product

## C#CCCCOP(=O)(O)O [Substrate 4]
CpaD I329G
  CpaD I329G-catalyzed alkylation of cyclic dipeptide: expected product detected: products detected by HPLC and confirmed by LR-LCMS
FgaPT2 M328G
  FgaPT2 M328G-catalyzed alkylation of Trp: expected product detected: products detected by HPLC and confirmed by LR-LCMS
FtmPT1 M364G
  FtmPT1 M364G-catalyzed alkylation of cyclic dipeptide: expected product detected: products detected by HPLC and confirmed by LR-LCMS
PhoN
  PhoN-catalyzed phosphorylation of alcohol: expected product detected: mass ions were detected by HR-LCMS consistent with the expected product

## C=C(C)COP(=O)(O)O [Substrate 5]
PhoN
  PhoN-catalyzed phosphorylation of alcohol: expected product detected: mass ions were detected by HR-LCMS consistent with the expected product

## C=CCCCOP(=O)(O)O [Substrate 6]
[3]; between 1 and 6
  fold drop in kcat/Km: 3 fold
FgaPT2
  FgaPT2-catalyzed alkylation of Trp: expected product detected: mass ions were detected by HR-LCMS consistent with the expected product

## CCC/C=C\COP(=O)(O)O [Substrate 7]
FgaPT2
  FgaPT2-catalyzed alkylation of Trp: expected product detected: mass ions were detected by HR-LCMS consistent with the expected product

## CCC/C=C/COP(=O)(O)O [Substrate 8]
[3]; π-bond geometry of 7 switched from Z to E in 8
  fold decrease in kcat/Km: 17 fold
FgaPT2
  FgaPT2-catalyzed alkylation of Trp: expected product detected: mass ions were detected by HR-LCMS consistent with the expected product

## C#CCCOP(=O)(O)O [Substrate 9]
PhoN
  PhoN-catalyzed phosphorylation of alcohol: expected product detected: mass ions were detected by HR-LCMS consistent with the expected product

## C=CCC(C)OP(=O)(O)OP(=O)(O)O (stereo not shown) [Substrate 19]
PhoN
  PhoN-catalyzed phosphorylation of alcohol: expected product detected: mass ions were detected by HR-LCMS consistent with the expected product
FtmPT1
  FtmPT1-catalyzed alkylation of cyclic dipeptide: expected product detected: products detected by HPLC and confirmed by LR-LCMS
CpaD
  CpaD-catalyzed alkylation of cyclic dipeptide: expected product detected: products detected by HPLC and confirmed by LR-LCMS
FgaPT2
  FgaPT2-catalyzed alkylation of Trp: expected product detected: mass ions were detected by HR-LCMS consistent with the expected product

## C=CCCCOP(=O)(O)O [Substrate 27]
[4]
  use as extender unit in place of IPP (GPP analogue by LC-MS), words: not utilized by IspA; also recorded: did not facilitate carbon-carbon bond formation; also recorded: did not serve as an extender unit
[3]; IPK with monophosphorylated substrate, ± SD of the mean
  kcat: 93.1 ± 2.67 s⁻¹
[3]; IPK with monophosphorylated substrate, ± SD of the mean, 1 mM ATP, 30° C.
  Km: 848 ± 57.9 µM

## O=P(O)(O)OP(=O)(O)OCc1cccnc1 [Substrate 32]
[4]
  use as extender unit in place of IPP (GPP analogue by LC-MS), words: did not serve as an extender unit

B1: isopentenyl phosphate kinase (IPK) (Thermoplasma acidophilum DSM 1728) (protein)
chain: T1 sequence (Q9HLX1 1-245)
[5]
  Km: 134 ± 38.2 µM
  kcat: 32.7 ± 2.05 s⁻¹
  kcat/Km: 230000 M⁻¹ s⁻¹
[6]
  Km: 27.9 ± 4.37 µM
  kcat: 43.9 ± 1.1 s⁻¹
  kcat/Km: 1.5e+06 M⁻¹ s⁻¹
